Experiment: xn = mol fraction of the nth substance listed
Settings: 100 kPa, Liquid; for viscosity: Falling or rolling sphere viscometry; for mass density: Vibrating tube method

C1CCC2=NCCC[NH+]2CC1.c1c[n-]cn1 [1,8-diazabicyclo[5.4.0]undec-7-enium imidazolide] + O
Settings	mass density, 293.15 K [kg/m3]	mass density, 298.15 K [kg/m3]	mass density, 303.15 K [kg/m3]	mass density, 308.15 K [kg/m3]	mass density, 313.15 K [kg/m3]	viscosity, 293.15 K [mPa·s]	viscosity, 298.15 K [mPa·s]	viscosity, 303.15 K [mPa·s]	viscosity, 308.15 K [mPa·s]	viscosity, 313.15 K [mPa·s]
x1 = 0.0298	1026.99	1024.52	1021.91	1019.17	1016.33	2.845	2.428	2.096	1.835	1.614
x1 = 0.0698	1048.57	1045.19	1041.75	1038.24	1034.66	8.167	6.74	5.761	4.854	4.071
x1 = 0.0998	1057.33	1053.65	1050.01	1046.13	1042.33	14.13	11.17	9.019	7.406	6.217
x1 = 0.1875	1067.15	1063.22	1059.26	1055.28	1051.28	34.98	25.84	19.66	15.37	12.31
x1 = 0.2994	1067.1	1063.15	1059.2	1055.23	1051.26	60.57	42.65	30.99	23.32	18.12
x1 = 0.444	1063.55	1059.63	1055.71	1051.79	1047.79	72.41	51.28	37.8	28.37	21.76
x1 = 0.5989	1059.62	1055.73	1051.85	1047.97	1044.1	69.49	49.75	36.33	27.13	20.87
x1 = 0.7516	1056.72	1052.85	1048.97	1045.08	1041.21	63.94	44.98	32.9	24.83	19.33
x1 = 0.8728	1055.11	1051.25	1047.41	1043.56	1039.73	55.45	39.57	29.31	22.6	17.88
x1 = 1	1053.63	1049.78	1045.94	1042.11	1038.28	47.82	34.94	26.36	20.5	16.28
